{
  "source": "patent US20160346255A1",
  "about": "“METHODS, AGENTS AND COMPOSITIONS FOR TREATMENT OF INFLAMMATORY CONDITIONS” (Betanien Hospital, priority 2014, published 2016)",
  "assay_type_in_all_cases": "in vivo, human",
  "key": {"Patient with Psoriasis": {"test_system": "Patient with Psoriasis", "test": "Psoriasis patient treated with degarelix", "method": "The PASI score is a standardized score for assessing disease activity in psoriasis.\nHe therefore received testosterone supplementation in the form of Testogel containing 50 mg of testosterone, first daily; thereafter every 3 days to maintain testosterone levels within the normal range.\nOne trial examined 15 patients with psoriasis who were taking lithium."}, "[1]": {"test_system": "Patient with Systemic Sclerosis", "test": "Systemic sclerosis patient treated with degarelix", "conditions": "for HAQ DI: baseline 1.88; for Digital tip ulcers/pitting scars: baseline 5; for Modified Rodnan Skin Score: baseline 42; for VAS Fatigue / VAS Fingertip pain/pitting scars/ulcers / VAS Gastrointestinal Symptoms / VAS Global / VAS Lung/dyspnea / VAS Pain / VAS Raynauds/vascular: baseline 100; for Sleep: baseline 2 hrs/night", "text": "• person, diagnosed with systemic sclerosis • Fulfilled the 2013 EULAR/ACR classification criteria for systemic sclerosis (1). • Diagnosis based upon Raynauds phenomenon, positive ANA, high titre anti-Scl 70 antibodies, marked skin changes typical of scleroderma, and esophageal dysmotility. • Previously tried cyclophosphamide and mycophenolate mofetil. • Progressive disease and worsening scleroderma skin features, despite therapy. • Rapid progressive cardiac disease, verified by biopsy. • Experimental treatment • 5 Dec. 2014 received first dose of degarelix, 240 mg s.c. • 9 Jan. 2015 received second dose of degarelix, 80 mg s.c.\n• Digital ulcers and pitting scars are a characteristic feature of systemic sclerosis, contributing to disability and pain. They are important factors in patients' evaluations of quality of life (2). Their precise objective evaluation can be included in randomized controlled trials (3). Their pathogenesis is unclear. Histologically, there is a plug-like hyperkeratosis with parakeratosis, homogenized collagen fibers and perivascular mononuclear cell infiltration (4). […] Efficacy variables in a systemic sclerosis patient treated with a GnRH antagonist at baseline, 5 weeks and 6 weeks: […]"}, "[2]": {"test_system": "Patient with Multiple Sclerosis", "test": "Multiple sclerosis patient treated with degarelix (with concomitant fampridine)", "method": "• person, diagnosed with multiple sclerosis (MS). Their MS was of the progressive type; characterized by a steady deterioration in function. • Fulfilled the 2010 McDonald Criteria for the diagnosis of MS (1).\n• So far results of clinical trials for progressive MS have generally been disappointing. Currently, there is no FDA-approved treatment for progressive MS disease. • December 2014 received first dose of degarelix 240 mg s.c. • Received degarelix 80 mg s.c. every two weeks thereafter.\n• This patient's EDSS has remained stable at 6.5, as expected over such a short time period of 6 weeks. A score of 6.5 is equivalent to only being able to walk with the aid of a walker, as in their case. This was evident at baseline and 6 weeks.\n• Patient-reported outcomes are of increasing importance in trials of progressive multiple sclerosis (2). The most frequently used global patient-reported outcome in multiple sclerosis is the MSIS-29 (3). This has been correlated with clinical and imaging metrics specifically in progressive forms of the disease (4). According to a recent review (2), patient reported outcomes in trials of progressive multiple sclerosis can be used to validate MRI or clinical metrics, and increased use of patient-reported outcomes in trials of progressive multiple sclerosis will be expected to help satisfy regulators' requirements that treatments show relevant benefit for patients. • At baseline, they scored 121 on the MSIS-29. By 6 weeks, their score was reduced to 110. A clinically significant minimal difference is a score change of 8. Therefore this reduction of 11 in their score is considered clinically significant (5).\n• The MSWS-12 (6) was designed as a disease-specific patient-based instrument for use in clinical trials and clinical practice, to capture the complex impact of MS on walking ability. […] One of the most important attributes of the MSWS-12 in comparison to other assessments of walking in MS patients is its responsiveness to change. […] By 6 weeks, their score was reduced to 53. This is a 12% improvement. A minimal clinically significant difference has not yet been established.\n• The MFIS-5 is a modified form of the Fatigue Impact Scale (10) based on items derived from interviews with MS patients concerning how fatigue impacts their lives. This instrument provides an assessment of the effects of fatigue in terms of physical, cognitive, and psychosocial functioning. • At baseline, they scored 20 on the MFIS-5. By 6 weeks, their score was reduced to 12. This was a reduction of 40%, which is clinically significant.\n• The T25FW is another common endpoint in trials. At baseline, they took 16.7 seconds to walk 25 feet, and by 6 weeks they took 15.2 seconds. This improvement in walking speed supports the patient's reported improved outcomes. […] This improvement in progressive MS is likely to also be observed in the relapsing-remitting type of MS. This is because the relapsing-remitting type gives similar signs and symptoms as the progressive type to patients over time.\n• For the last 2.5 years, they had been taking stable concomitant fampridine, a potassium channel blocker, for symptomatic treatment for MS. Their MS disease activity had been increasing gradually over these 2.5 years, requiring them to use crutches, and eventually a walker. In December 2014, they started experimental treatment with degarelix. […] They describe in an interview that for the first time they could easily complete certain exercises with their under extremities that they had previously never been able to do during their physiotherapy visits. • Due to this effect, they decided to discontinue their long-term stable fampridine medication on 05.04.15. […] This improvement in progressive MS is likely to also be observed in the relapsing-remitting type of MS. This is because the relapsing-remitting type gives similar signs and symptoms as the progressive type to patients over time."}, "[3]": {"conditions": "progressive MS patient, by 6 weeks"}},
  "note": "Non-standard residues stand in square brackets, D forms with d. Residues, ends and D or L forms follow the SMILES beside them. *: point of attachment. dPhe(4-NHCONH2) = NC(=O)Nc1ccc(C[C@@H](N)C(=O)O)cc1; Dihydroorotyl(S) = O=C1C[C@@H](C(=O)*)NC(=O)N1; dPhe(4-Cl) = N[C@H](Cc1ccc(Cl)cc1)C(=O)O; Phe(4-NH2) = Nc1ccc(C[C@H](N)C(=O)O)cc1; d2Nal = N[C@H](Cc1ccc2ccccc2c1)C(=O)O; Lys(iPr) = CC(C)NCCCC[C@H](N)C(=O)O; d3Pal = N[C@H](Cc1cccnc1)C(=O)O",
  "data": [
    {"smiles": "CC(=O)N[C@H](Cc1ccc2ccccc2c1)C(=O)N[C@H](Cc1ccc(Cl)cc1)C(=O)N[C@H](Cc1cccnc1)C(=O)N[C@@H](CO)C(=O)N[C@@H](Cc1ccc(NC(=O)[C@@H]2CC(=O)NC(=O)N2)cc1)C(=O)N[C@H](Cc1ccc(NC(N)=O)cc1)C(=O)N[C@@H](CC(C)C)C(=O)N[C@@H](CCCCNC(C)C)C(=O)N1CCC[C@H]1C(=O)N[C@H](C)C(N)=O", "note": "[degarelix] (Ac-[d2Nal][dPhe(4-Cl)][d3Pal]S[Phe(4-NH2)](Dihydroorotyl(S))[dPhe(4-NHCONH2)]L[Lys(iPr)]P[dA]-NH2)", "values": [
      {"measurement": "Testosterone (normal 8-35 nmol/L)", "setting": "Patient with Psoriasis; after the first week, before 12 nmol/L", "result": "< 1", "unit": "nmol/L"},
      {"measurement": "Improvement in psoriasis", "setting": "Patient with Psoriasis; at 6 months", "result": "stable"},
      {"measurement": "PASI absolute reduction", "setting": "Patient with Psoriasis; by 8 weeks", "result": 12.3, "unit": "points"},
      {"measurement": "PASI reduction", "setting": "Patient with Psoriasis; by 8 weeks", "result": 23, "unit": "%"},
      {"measurement": "PASI score", "setting": "Patient with Psoriasis; by 8 weeks, baseline 53.6", "result": 41.3},
      {"measurement": "Testosterone (normal 8-35 nmol/L)", "setting": "Patient with Psoriasis; week 8, under testosterone substitution (Testogel)", "result": 9, "unit": "nmol/L"},
      {"measurement": "HAQ DI", "setting": "[1]; 5 weeks", "result": 1.38},
      {"measurement": "Digital tip ulcers/pitting scars", "setting": "[1]; 5 weeks", "result": 2},
      {"measurement": "Modified Rodnan Skin Score", "setting": "[1]; 5 weeks", "result": 40},
      {"measurement": "VAS Fatigue", "setting": "[1]; 5 weeks", "result": 75},
      {"measurement": "VAS Fingertip pain/pitting scars/ulcers", "setting": "[1]; 5 weeks", "result": 40},
      {"measurement": "VAS Gastrointestinal Symptoms", "setting": "[1]; 5 weeks", "result": 80},
      {"measurement": "VAS Global", "setting": "[1]; 5 weeks", "result": 40},
      {"measurement": "VAS Lung/dyspnea", "setting": "[1]; 5 weeks", "result": 80},
      {"measurement": "VAS Pain", "setting": "[1]; 5 weeks", "result": 10},
      {"measurement": "VAS Raynauds/vascular", "setting": "[1]; 5 weeks", "result": 40},
      {"measurement": "Sleep", "setting": "[1]; 5 weeks", "result": 5, "unit": "hrs/night"},
      {"measurement": "HAQ DI", "setting": "[1]; 6 weeks", "result": 1.38},
      {"measurement": "Digital tip ulcers/pitting scars", "setting": "[1]; 6 weeks", "result": 2},
      {"measurement": "Modified Rodnan Skin Score", "setting": "[1]; 6 weeks", "result": 40},
      {"measurement": "VAS Fatigue", "setting": "[1]; 6 weeks", "result": 60},
      {"measurement": "VAS Fingertip pain/pitting scars/ulcers", "setting": "[1]; 6 weeks", "result": 30},
      {"measurement": "VAS Gastrointestinal Symptoms", "setting": "[1]; 6 weeks", "result": 60},
      {"measurement": "VAS Global", "setting": "[1]; 6 weeks", "result": 40},
      {"measurement": "VAS Lung/dyspnea", "setting": "[1]; 6 weeks", "result": 50},
      {"measurement": "VAS Pain", "setting": "[1]; 6 weeks", "result": 10},
      {"measurement": "VAS Raynauds/vascular", "setting": "[1]; 6 weeks", "result": 30},
      {"measurement": "Sleep", "setting": "[1]; 6 weeks", "result": 5.5, "unit": "hrs/night"},
      {"measurement": "Timed walk test", "setting": "[2]; MS patient, 29.4.15, after fampridine discontinued 05.04.15, from 11.9", "result": 14.0, "unit": "s"},
      {"measurement": "Expanded Disability Status Scale (EDSS)", "setting": "[2]; progressive MS patient, 6 weeks, stable vs baseline", "result": 6.5},
      {"measurement": "MFIS-5 reduction", "setting": "[2]; [3]", "result": 40, "unit": "%"},
      {"measurement": "MSIS-29 score reduction", "setting": "[2]; [3]", "result": 11},
      {"measurement": "MSWS-12 improvement", "setting": "[2]; [3]", "result": 12, "unit": "%"},
      {"measurement": "MFIS-5 score", "setting": "[2]; progressive MS patient, by 6 weeks, baseline 20", "result": 12},
      {"measurement": "MSWS-12 score", "setting": "[2]; progressive MS patient, by 6 weeks, baseline 60", "result": 53},
      {"measurement": "MSIS-29 score", "setting": "[2]; progressive MS patient, by 6 weeks, baseline 121", "result": 110},
      {"measurement": "Timed 25 Foot Walk (T25FW)", "setting": "[2]; progressive MS patient, by 6 weeks, stable fampridine, baseline 16.7", "result": 15.2, "unit": "s"},
      {"measurement": "General function (patient reported)", "setting": "[2]; progressive MS patient, from around 4 weeks, further by 6 weeks", "result": "general improvement"}
    ]}
  ]
}
